Measured values as given in PubChem BioAssay (NCI).
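Compound exposure: 48 hours, 5 concentrations, 96-well plates. TGI: total growth inhibition.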

How the values were obtained:
Test in all cases: growth of human tumour cells (NCI), 48 h
786-0 renal = tested on: 786-0 renal
A549 NSCLC = tested on: A549 NSCLC
ACHN renal = tested on: ACHN renal
CAKI-1 renal = tested on: CAKI-1 renal
CCRF-CEM leukemia = tested on: CCRF-CEM leukemia
COLO 205 colon = tested on: COLO 205 colon
DLD-1 colon = tested on: DLD-1 colon
DMS 114 small cell lung = tested on: DMS 114 small cell lung
DMS 273 small cell lung = tested on: DMS 273 small cell lung
EKVX NSCLC = tested on: EKVX NSCLC
HCC-2998 colon = tested on: HCC-2998 colon
HCT-116 colon = tested on: HCT-116 colon
HCT-15 colon = tested on: HCT-15 colon
HL-60(TB) leukemia = tested on: HL-60(TB) leukemia
HOP-18 NSCLC = tested on: HOP-18 NSCLC
HOP-62 NSCLC = tested on: HOP-62 NSCLC
HOP-92 NSCLC = tested on: HOP-92 NSCLC
HT29 colon = tested on: HT29 colon
IGROV1 ovarian = tested on: IGROV1 ovarian
K-562 leukemia = tested on: K-562 leukemia
KM12 colon = tested on: KM12 colon
KM20L2 colon = tested on: KM20L2 colon
LOX IMVI melanoma = tested on: LOX IMVI melanoma
LXFL 529 NSCLC = tested on: LXFL 529 NSCLC
M14 melanoma = tested on: M14 melanoma
M19-MEL melanoma = tested on: M19-MEL melanoma
MALME-3M melanoma = tested on: MALME-3M melanoma
MOLT-4 leukemia = tested on: MOLT-4 leukemia
NCI-H226 lung = tested on: NCI-H226 lung
NCI-H23 lung = tested on: NCI-H23 lung
NCI-H460 lung = tested on: NCI-H460 lung
NCI-H522 lung = tested on: NCI-H522 lung
OVCAR-3 ovarian = tested on: OVCAR-3 ovarian
OVCAR-5 ovarian = tested on: OVCAR-5 ovarian
OVCAR-8 ovarian = tested on: OVCAR-8 ovarian
RPMI-8226 leukemia = tested on: RPMI-8226 leukemia
RXF 393 renal = tested on: RXF 393 renal
SF-268 CNS = tested on: SF-268 CNS
SF-295 CNS = tested on: SF-295 CNS
SK-MEL-2 melanoma = tested on: SK-MEL-2 melanoma
SK-MEL-28 melanoma = tested on: SK-MEL-28 melanoma
SK-MEL-5 melanoma = tested on: SK-MEL-5 melanoma
SK-OV-3 ovarian = tested on: SK-OV-3 ovarian
SNB-19 CNS = tested on: SNB-19 CNS
SNB-75 CNS = tested on: SNB-75 CNS
SNB-78 CNS = tested on: SNB-78 CNS
SR leukemia = tested on: SR leukemia
SW-620 colon = tested on: SW-620 colon
TK-10 renal = tested on: TK-10 renal
U251 CNS = tested on: U251 CNS
UACC-257 melanoma = tested on: UACC-257 melanoma
UACC-62 melanoma = tested on: UACC-62 melanoma
UO-31 renal = tested on: UO-31 renal
XF 498 CNS = tested on: XF 498 CNS
A498 renal = tested on: A498 renal
OVCAR-4 ovarian = tested on: OVCAR-4 ovarian
SF-539 CNS = tested on: SF-539 CNS
SN12C renal = tested on: SN12C renal

Measured: TGI

CC(=O)CCCCCCCCCCCC[C@@H]1CC[C@H](C)[C@H](O)N1
> 100 µM: 786-0 renal | A549 NSCLC | ACHN renal | CAKI-1 renal | CCRF-CEM leukemia | COLO 205 colon | DLD-1 colon | DMS 114 small cell lung | DMS 273 small cell lung | EKVX NSCLC | HCC-2998 colon | HCT-116 colon | HCT-15 colon | HL-60(TB) leukemia | HOP-18 NSCLC | HOP-62 NSCLC | HOP-92 NSCLC | HT29 colon | IGROV1 ovarian | K-562 leukemia | KM12 colon | KM20L2 colon | LOX IMVI melanoma | LXFL 529 NSCLC | M14 melanoma | M19-MEL melanoma | MALME-3M melanoma | MOLT-4 leukemia | NCI-H226 lung | NCI-H23 lung | NCI-H460 lung | NCI-H522 lung | OVCAR-3 ovarian | OVCAR-5 ovarian | OVCAR-8 ovarian | RPMI-8226 leukemia | RXF 393 renal | SF-268 CNS | SF-295 CNS | SK-MEL-2 melanoma | SK-MEL-28 melanoma | SK-MEL-5 melanoma | SK-OV-3 ovarian | SNB-19 CNS | SNB-75 CNS | SNB-78 CNS | SR leukemia | SW-620 colon | TK-10 renal | U251 CNS | UACC-257 melanoma | UACC-62 melanoma | UO-31 renal | XF 498 CNS

O=C1C=C[C@@]23CC1C(O)C[C@H]2C=Cc1ccccc13 (some centres not stated)
> 100 µM: 786-0 renal | A498 renal | A549 NSCLC | ACHN renal | CAKI-1 renal | CCRF-CEM leukemia | COLO 205 colon | DLD-1 colon | DMS 114 small cell lung | HCC-2998 colon | HCT-116 colon | HCT-15 colon | HL-60(TB) leukemia | HOP-62 NSCLC | HOP-92 NSCLC | HT29 colon | IGROV1 ovarian | K-562 leukemia | KM12 colon | KM20L2 colon | LOX IMVI melanoma | LXFL 529 NSCLC | M14 melanoma | M19-MEL melanoma | MALME-3M melanoma | MOLT-4 leukemia | NCI-H226 lung | NCI-H460 lung | NCI-H522 lung | OVCAR-3 ovarian | OVCAR-4 ovarian | OVCAR-5 ovarian | OVCAR-8 ovarian | RPMI-8226 leukemia | SF-268 CNS | SF-295 CNS | SF-539 CNS | SK-MEL-2 melanoma | SK-MEL-5 melanoma | SK-OV-3 ovarian | SN12C renal | SNB-19 CNS | SNB-75 CNS | SW-620 colon | UACC-257 melanoma | UACC-62 melanoma | UO-31 renal | XF 498 CNS
